Results taken from US20060246163A1, “TREATMENT OF INSULIN RESISTANCE SYNDROME” (TG BIOTECH, priority 2005, published 2006).

Legend:
Assay type in all cases: cell-based
JNK = JNK activity in L6 myotube cells, phospho JNK immunoblot; details: 2 hs; GP 30, 60 μg/mL; AICAR 1 mM; insulin 100 nM
Protocol: L6 myotube cells were treated with GP for 2 hs. Cytosolic fraction was immunoblotted against phospho JNK antibodies. 1) control cells with no treatment; 2) GP 30 μg/ mL; 3) GP 60 μg/ mL; 4) AICAR 1 mM; 5) insulin 100 nM. We also investigated effects of GP treatment on JNK activity in L6 myotube cells.

ACC = ACC Ser79 phosphorylation in L6 myotube cells; details: GP 30, 60, 100 μg/mL; AICAR 1 mM; insulin 100 nM
Protocol: (§1) 1) control; 2) GP 30 μg/mL; 3) GP 60 μg/mL; 4) GP 100 μg/mL; 5) AICAR 1 mM; 6) insulin 100 nM.
L6 myotube cells were treated with GP and AICAR.

AKT = AKT phosphorylation/activity in L6 cells; details: GP 30, 60, 100 μg/mL; AICAR 1 mM; insulin 100 nM
Protocol: as §1
AKT (also called protein kinase B, PKB) phosphorylation is catalyzed by PI3K in insulin signal pathway. Whether GP treatment on the muscle cells affects AKT activity was tested.

IKKβ = IKKβ phosphorylation/activity in L6 myotube cells in the presence of tunicamycin; details: GP 30, 60 μg/mL, AICAR 1 mM, insulin 100 nM
Protocol: The cytosolic fraction was subjected on SDS-PAGE and blotted on nitrocellulose membrane. The membrane was incubated with anti-phospho-IKKβ (S^177/181), anti-phospho IRS1 (S^307), and anti-phospho SAPK/JNK (T^183) antibodies. 1) control cells with no treatment; 2) L6 cells treated with tunicamycin; 3) cells treated with 30 μg/mL GP in the presence of tunicamycin; 4) cells treated with 60 μg/mL GP in the presence of tunicamycin; 5) cells treated with 1 mM AICAR in the presence of tunicamycin; 6) cells incubated with 100 nM insulin in the presence of tunicamycin; 7) cells incubated with 100 nM insulin in the absence of tunicamycin.
The effect of GP on the phosphorylation of IKKβ in L6 myotube cells in the presence of tunicamycin was evaluated. The cytosolic fraction was subjected to SDS-PAGE and blotted on nitrocellulose membrane. The cytosolic fraction was subjected to SDS-PAGE and blotted on nitrocellulose membrane. The membrane was incubated with anti-phospho-IKKβ (S^177/181), anti-phospho IRS1 (S^307), and anti-phospho SAPK/JNK (T^183) antibodies.

L6 myotube cells = experiment: 2-deoxyglucose uptake in L6 myotube cells; details: high glucose; GP 60 μg/mL 2 hs, AICAR 1 mM 1 h, insulin 100 nM 20 min
Protocol: Examples 1-5 indicate that GP would increase glucose uptake regardless of the presence of insulin. To measure the glucose uptake in vitro, we performed 2-deoxyglucose uptake experiment. Since 2-deoxyglucose is not metabolized inside cells, radiolabeled 2-deoxyglucose was used for measuring glucose uptake experiment. Whether GP increases glucose uptake in L6 myotube cells was investigated. Prior to adding the materials, the cells were incubated in the presence of high glucose, since high glucose is known to obstruct glucose uptake in muscle […] (60 μg/mL), AICAR (1 mM) and insulin (100 nM) were incubated for 2 hs, 1 h and 20 min, respectively. Immediately after washing in Hepes buffered saline (HBS), the cells were incubated with 2-deoxyglucose (10 μM) in HBS for 10 min. Extensive washing was preceded before measuring radioactivity in scintillation counter. The uptake unit was estimated by the total counts of incubation.

AMPK = AMPK phosphorylation (threonine 172) in L6 myotube cells, immunoblot; details: 1 mM, high glucose
Protocol: L6 myotube cells were treated with 60 μg/mL of GP and incubated for the period of time indicated. Cells were lysed in lysis buffer and cytosolic proteins were resolved by SDS-PAGE, protein bands were transferred onto a nitrocellulose membrane, and phospho-AMPK was analyzed with specific antibodies. 1) control cells with no treatment; 2) cells treated with GP for 30 min; 3) cells treated with GP for 1 h; 3) cells with treated with GP for 2 hs.
(§2) The kinase activities were evaluated with specific antibodies. 1) control; 2) GP 30 μg/mL; 3) GP 60 μg/mL; 4) AICAR 1 mM.
We treated GP on L6 myotube cells to determine whether the treatment activates AMPK activity. Activation of AMPK was estimated by the increase in the phosphorylation on the threonine^172 residue of AMPK using specific antibodies. […] Cells were pretreated with high glucose (27.5 mM) to induce insulin resistance and to repress AMPK activation (Itani, 2003).
(§3) L6 cells were differentiated into mature muscle cells in a low serum condition (2%, v/v). AICAR was used as an internal positive control. Once drug treatments were completed, cells were harvested, subjected to be lysated, and equal amount of proteins from each treatment was loaded on gels for analyzing AMPK and p38 MAPK activity levels (FIG. 7). Total AMPK protein was also immunoblotted to make sure that equal amount of protein was loaded on the gels.

p38 MAPK = p38 MAPK activation in L6 cells; details: GP 30, 60 μg/mL; AICAR 1 mM
Protocol: as §2, §3
We investigated whether GP is able to activate p38 MAPK in L6 cells.

insulin: hormone used as positive marker/control for GLUT4 translocation and AKT activation
JNK activity (JNK): not affected
Phosphorylation of Ser79 of ACC (ACC): did not affect the phosphorylation
AKT activity (phosphorylation) (AKT): activated AKT activity considerably
Serine phosphorylation / activity of IKKβ (IKKβ): slightly reduced
Increase of 2-deoxyglucose uptake, on average (L6 myotube cells): 40%

NC(=O)c1ncn([C@@H]2O[C@H](COP(=O)(O)O)[C@@H](O)[C@H]2O)c1N [AICAR, 5′-phosphoribosyl-5-aminoimidazole-4-carboxamide]
JNK activity (JNK): not affected
Phosphorylation of Ser79 of ACC (ACC): increased the phosphorylation of ACC but slightly less than that observed with 30 μg/mL of GP
Phosphorylation level of AMPK (AMPK): comparable to that of 60 μg/mL of GP
AKT activity (phosphorylation) (AKT): Neither GP nor AICAR appeared to affect AKT activity
Serine phosphorylation / activity of IKKβ (IKKβ): slightly reduced
Increase of 2-deoxyglucose uptake, on average (L6 myotube cells): 42%
p38 MAPK activation (p38 MAPK): exhibited p38 activation
